Assays:
HMEC = assay: Activity against HMVEC; type: functional, cell-based; settings: Homo sapiens
[1] = biological target: Platelet-derived growth factor receptor beta (Mus musculus, UniProt P05622); assay: Inhibitory activity against PDGFRbeta
[2] = biological target: Vascular endothelial growth factor receptor 2 (Mus musculus, UniProt P35918); assay: Inhibitory activity against VEGFR2
[3] = biological target: Vascular endothelial growth factor receptor 1 (Homo sapiens, UniProt P17948)
Description: Inhibitory activity against VEGFR1

[4] = biological target: Fibroblast growth factor receptor 1 (Homo sapiens, UniProt P11362); assay: Inhibitory activity against FGFR1
Fibroblast growth factor receptor 1, sequence (P11362 whole entry): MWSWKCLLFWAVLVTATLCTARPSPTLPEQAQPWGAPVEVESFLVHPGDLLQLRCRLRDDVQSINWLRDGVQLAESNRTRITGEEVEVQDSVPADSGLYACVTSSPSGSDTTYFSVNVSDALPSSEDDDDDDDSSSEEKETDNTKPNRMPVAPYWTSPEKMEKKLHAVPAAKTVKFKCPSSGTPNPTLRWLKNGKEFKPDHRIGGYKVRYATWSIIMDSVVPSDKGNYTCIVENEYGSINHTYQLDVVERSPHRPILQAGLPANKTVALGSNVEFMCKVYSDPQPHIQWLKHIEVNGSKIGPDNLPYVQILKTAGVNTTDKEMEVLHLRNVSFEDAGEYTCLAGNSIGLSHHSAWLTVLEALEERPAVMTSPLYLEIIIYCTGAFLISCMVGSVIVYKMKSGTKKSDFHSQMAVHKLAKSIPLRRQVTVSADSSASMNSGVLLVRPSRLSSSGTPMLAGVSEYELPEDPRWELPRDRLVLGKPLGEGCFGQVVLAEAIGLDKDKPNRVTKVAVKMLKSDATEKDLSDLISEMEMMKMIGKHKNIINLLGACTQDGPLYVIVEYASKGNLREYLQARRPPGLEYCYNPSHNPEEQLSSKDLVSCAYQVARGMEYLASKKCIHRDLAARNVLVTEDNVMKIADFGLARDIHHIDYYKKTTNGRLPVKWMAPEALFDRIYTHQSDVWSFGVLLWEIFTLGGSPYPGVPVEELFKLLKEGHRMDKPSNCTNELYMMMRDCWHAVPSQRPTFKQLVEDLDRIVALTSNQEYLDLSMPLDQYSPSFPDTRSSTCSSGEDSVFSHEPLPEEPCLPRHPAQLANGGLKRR

[5] = Oral bioavailability in mice; type: ADME, organism-based; settings: mouse, in vivo
[6] = Half life in mice at 20 mg/kg, po; type: ADME, organism-based; design: dose 20 mg/kg, route oral; settings: mouse, in vivo
[7] = Half life in mice at 5 mg/kg, iv; type: ADME, organism-based; design: dose 5 mg/kg, route intravenous; settings: mouse, in vivo
[8] = Clearance in mice; type: ADME, organism-based; settings: mouse, in vivo

Platelet-derived growth factor receptor beta, sequence (P05622 whole entry): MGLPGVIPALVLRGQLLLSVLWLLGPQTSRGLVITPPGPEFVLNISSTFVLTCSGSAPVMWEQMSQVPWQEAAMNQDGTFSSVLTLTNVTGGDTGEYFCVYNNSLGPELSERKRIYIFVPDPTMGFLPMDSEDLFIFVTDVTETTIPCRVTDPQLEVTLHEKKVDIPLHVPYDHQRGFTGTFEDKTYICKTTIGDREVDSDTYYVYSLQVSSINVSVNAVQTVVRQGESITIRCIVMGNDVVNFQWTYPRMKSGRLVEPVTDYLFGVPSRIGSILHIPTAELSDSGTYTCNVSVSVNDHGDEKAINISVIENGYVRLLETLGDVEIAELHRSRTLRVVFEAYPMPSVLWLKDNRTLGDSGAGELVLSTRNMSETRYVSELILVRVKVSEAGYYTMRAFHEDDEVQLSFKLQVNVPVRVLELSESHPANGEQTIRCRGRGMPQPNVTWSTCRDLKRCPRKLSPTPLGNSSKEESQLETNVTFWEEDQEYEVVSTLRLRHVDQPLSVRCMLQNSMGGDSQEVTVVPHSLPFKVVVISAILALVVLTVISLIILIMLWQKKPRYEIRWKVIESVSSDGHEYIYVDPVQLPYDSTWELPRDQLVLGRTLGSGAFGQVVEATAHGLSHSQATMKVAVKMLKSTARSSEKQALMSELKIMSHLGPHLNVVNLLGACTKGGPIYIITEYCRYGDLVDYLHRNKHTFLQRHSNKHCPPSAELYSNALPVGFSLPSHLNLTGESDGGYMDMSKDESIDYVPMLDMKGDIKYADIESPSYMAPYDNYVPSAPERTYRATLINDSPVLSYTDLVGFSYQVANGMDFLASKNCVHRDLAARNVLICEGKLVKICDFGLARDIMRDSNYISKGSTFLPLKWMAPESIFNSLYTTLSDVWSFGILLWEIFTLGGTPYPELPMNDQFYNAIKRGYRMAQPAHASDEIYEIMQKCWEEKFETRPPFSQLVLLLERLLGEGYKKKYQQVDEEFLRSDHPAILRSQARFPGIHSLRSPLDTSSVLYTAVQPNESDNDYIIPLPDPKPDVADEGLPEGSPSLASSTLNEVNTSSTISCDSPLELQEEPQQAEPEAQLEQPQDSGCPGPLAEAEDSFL
Vascular endothelial growth factor receptor 2, sequence (P35918 whole entry): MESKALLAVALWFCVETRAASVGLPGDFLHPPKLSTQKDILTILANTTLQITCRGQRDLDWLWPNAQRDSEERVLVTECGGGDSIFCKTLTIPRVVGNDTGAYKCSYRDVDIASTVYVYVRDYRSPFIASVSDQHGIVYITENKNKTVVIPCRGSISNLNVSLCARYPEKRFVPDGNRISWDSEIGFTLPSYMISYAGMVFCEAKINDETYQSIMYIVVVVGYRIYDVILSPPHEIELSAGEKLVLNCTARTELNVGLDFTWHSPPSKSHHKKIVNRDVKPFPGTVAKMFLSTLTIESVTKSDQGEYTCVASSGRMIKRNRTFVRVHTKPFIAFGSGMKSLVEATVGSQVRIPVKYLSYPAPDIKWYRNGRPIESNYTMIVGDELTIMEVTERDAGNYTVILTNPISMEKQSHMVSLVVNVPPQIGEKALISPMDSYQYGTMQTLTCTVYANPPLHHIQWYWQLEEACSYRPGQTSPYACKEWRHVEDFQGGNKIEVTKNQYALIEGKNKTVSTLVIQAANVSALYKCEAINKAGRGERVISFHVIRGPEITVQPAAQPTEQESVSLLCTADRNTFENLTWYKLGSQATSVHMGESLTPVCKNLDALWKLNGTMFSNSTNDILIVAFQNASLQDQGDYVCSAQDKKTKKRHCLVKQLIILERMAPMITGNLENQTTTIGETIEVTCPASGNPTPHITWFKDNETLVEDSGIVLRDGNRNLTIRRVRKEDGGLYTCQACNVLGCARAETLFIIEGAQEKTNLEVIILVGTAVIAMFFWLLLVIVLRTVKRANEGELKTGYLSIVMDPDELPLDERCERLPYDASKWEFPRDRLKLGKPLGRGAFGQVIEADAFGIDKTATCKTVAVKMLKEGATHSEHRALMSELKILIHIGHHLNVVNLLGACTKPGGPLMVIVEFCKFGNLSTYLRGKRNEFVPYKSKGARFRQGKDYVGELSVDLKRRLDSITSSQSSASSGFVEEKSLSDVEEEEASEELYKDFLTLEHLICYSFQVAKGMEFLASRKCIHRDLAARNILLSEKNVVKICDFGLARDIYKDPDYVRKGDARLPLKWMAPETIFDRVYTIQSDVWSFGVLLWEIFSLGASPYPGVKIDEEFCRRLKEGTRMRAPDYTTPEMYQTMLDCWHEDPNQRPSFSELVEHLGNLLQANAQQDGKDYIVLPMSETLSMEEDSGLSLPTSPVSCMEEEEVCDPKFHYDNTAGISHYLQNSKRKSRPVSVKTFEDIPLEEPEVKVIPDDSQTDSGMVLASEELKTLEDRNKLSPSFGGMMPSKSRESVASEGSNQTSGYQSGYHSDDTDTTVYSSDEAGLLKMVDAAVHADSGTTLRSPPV
Vascular endothelial growth factor receptor 1, sequence (P17948 whole entry): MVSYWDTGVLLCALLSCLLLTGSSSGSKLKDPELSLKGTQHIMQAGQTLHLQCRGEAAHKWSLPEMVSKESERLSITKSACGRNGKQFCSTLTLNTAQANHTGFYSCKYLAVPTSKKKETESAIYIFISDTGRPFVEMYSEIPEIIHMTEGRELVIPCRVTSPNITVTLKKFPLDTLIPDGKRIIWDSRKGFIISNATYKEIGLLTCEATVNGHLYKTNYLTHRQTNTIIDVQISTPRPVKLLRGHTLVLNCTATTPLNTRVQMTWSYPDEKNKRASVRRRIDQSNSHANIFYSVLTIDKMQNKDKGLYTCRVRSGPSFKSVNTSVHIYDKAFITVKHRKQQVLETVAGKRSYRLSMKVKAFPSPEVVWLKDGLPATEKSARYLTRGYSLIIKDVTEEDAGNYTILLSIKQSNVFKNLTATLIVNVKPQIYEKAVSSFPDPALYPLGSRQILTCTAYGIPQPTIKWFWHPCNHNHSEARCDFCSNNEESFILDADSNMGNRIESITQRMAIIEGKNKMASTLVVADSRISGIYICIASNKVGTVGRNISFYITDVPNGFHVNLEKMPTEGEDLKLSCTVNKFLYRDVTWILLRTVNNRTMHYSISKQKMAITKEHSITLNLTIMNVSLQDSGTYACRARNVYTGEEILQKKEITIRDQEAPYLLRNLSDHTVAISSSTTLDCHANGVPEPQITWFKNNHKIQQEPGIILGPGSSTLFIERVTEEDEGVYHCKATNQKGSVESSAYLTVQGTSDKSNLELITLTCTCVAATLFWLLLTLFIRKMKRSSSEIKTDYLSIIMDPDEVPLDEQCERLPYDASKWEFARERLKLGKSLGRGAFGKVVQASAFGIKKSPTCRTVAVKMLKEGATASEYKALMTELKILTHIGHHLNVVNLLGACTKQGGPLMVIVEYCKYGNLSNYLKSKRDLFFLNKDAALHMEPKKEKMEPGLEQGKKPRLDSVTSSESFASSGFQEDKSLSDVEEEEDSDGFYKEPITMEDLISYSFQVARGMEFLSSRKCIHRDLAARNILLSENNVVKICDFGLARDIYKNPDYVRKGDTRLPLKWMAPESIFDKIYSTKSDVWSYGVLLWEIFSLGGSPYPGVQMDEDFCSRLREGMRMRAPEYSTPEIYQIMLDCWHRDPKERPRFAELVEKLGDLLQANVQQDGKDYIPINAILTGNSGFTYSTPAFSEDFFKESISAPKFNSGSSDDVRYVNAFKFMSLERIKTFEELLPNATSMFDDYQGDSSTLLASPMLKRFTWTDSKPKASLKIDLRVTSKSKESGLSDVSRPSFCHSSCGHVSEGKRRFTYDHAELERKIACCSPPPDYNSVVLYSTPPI

| SMILES | EC50 (HMEC) [nM] | IC50 [1] [nM] | IC50 [2] [nM] | IC50 [3] [nM] | IC50 [4] [nM] | bioavailability [5] [%] | half-life [6] [h] | half-life [7] [h] | clearance [8] [mL/min/kg] |
| --- | --- | --- | --- | --- | --- | --- | --- | --- | --- |
| O=c1[nH]c2ccccc2c(O)c1-c1nc2ccccc2[nH]1 | 428 | 395 | 114 | 162 | 215 | – | – | – | – |
| CN1CCN(c2ccc3[nH]c(-c4c(O)nc5cnccc5c4N)nc3c2)CC1 | 16 | 43 | 1 | – | 4 | – | – | – | – |
| Nc1c(-c2nc3cc(N4CCOCC4)ccc3[nH]2)c(O)nc2ccncc12 | 768 | 18 | 57 | – | 100 | – | – | – | – |
| Cn1ncc2c(N)c(-c3nc4ccccc4[nH]3)c(O)nc21 | 321 | 575 | 3000 | – | 3000 | – | – | – | – |
| Nc1c(-c2nc3cc(N4CCOCC4)ccc3[nH]2)c(=O)[nH]c2ccccc12 | 40 | 38 | 4 | – | 21 | 100 | 3.6 | 1.18 | 13 |
| Nc1c(-c2nc3cc(N4CCOCC4)ccc3[nH]2)c(O)nc2cnccc12 | 84 | 64 | 2 | – | 10 | 87 | 1.3 | 0.433 | 24 |
| Nc1c(-c2nc3ccccc3[nH]2)c(O)nc2sccc12 | 850 | 691 | 109 | – | 348 | – | – | – | – |
| Nc1c(-c2nc3ccccc3[nH]2)c(O)nc2cnccc12 | 53 | 57 | 3 | – | 10 | – | – | – | – |
| CN1CCN(c2ccc3nc(-c4c(N)c5ccccc5[nH]c4=O)[nH]c3n2)CC1 | 51 | 30 | 24 | – | 10 | – | – | – | – |
| Oc1nc2ncccc2c(O)c1-c1nc2ccccc2[nH]1 | > 10000 | 6530 | 3000 | – | 5000 | – | – | – | – |
| Nc1c2cnnc-2[nH]c(O)c1-c1nc2ccccc2[nH]1 | 3820 | 326 | 507 | – | 3170 | – | – | – | – |
| Nc1c2ncnc-2[nH]c(O)c1-c1nc2ccccc2[nH]1 | 3680 | 154 | 552 | – | 2660 | – | – | – | – |
| Nc1c(-c2nc3ccccc3[nH]2)c(=O)[nH]c2ccccc12 | – | 102 | 25 | 28 | 44 | – | – | – | – |
| Oc1nc2cnccc2c(O)c1-c1nc2ccccc2[nH]1 | 2200 | 1590 | 168 | – | 576 | – | – | – | – |
| Nc1c(-c2nc3ccc(N4CCOCC4)nc3[nH]2)c(=O)[nH]c2ccccc12 | 34 | 48 | 8 | – | 47 | 84 | 0.95 | 1.08 | 61 |
| Nc1c(-c2nc3cccnc3[nH]2)c(=O)[nH]c2cnccc12 | 77 | 49 | 12 | – | 30 | – | – | – | – |
| CN1CCN(c2ccc3[nH]c(-c4c(O)nc5cccnc5c4N)nc3c2)CC1 | 89 | 55 | 33 | – | 43 | – | – | – | – |
| Nc1c(-c2nc3cccnc3[nH]2)c(=O)[nH]c2ccccc12 | 88 | 25 | 16 | – | 51 | – | – | – | – |
| CN1CCN(c2ccc3[nH]c(-c4c(N)c5ccccc5[nH]c4=O)nc3c2)CC1 | 20 | 27 | 13 | – | 8 | – | – | – | – |

— ChEMBL document CHEMBL1146959, “Design and structure-activity relationship of heterocyclic analogs of 4-amino-3-benzimidazol-2-ylhydroquinolin-2-ones as inhibitors of receptor tyrosine kinases” (Bioorg Med Chem Lett, 2006)
